Experimental data reported in patent publication US6358937B1, “Method for the treatment of cancer using phosphatidic acid-comprising compositions” (Modus Biological Membranes Ltd., priority 1996, dated 2002).

Experiments:
Type in all cases: cell-based, murine
[1] = test system: P388 (unadapted); assay: Growth rate of unadapted P388 cells; conditions: unadapted P388 grown in the presence of 10^−8M drug; relative to unadapted P388 = 100
Method: (§1) P388/MET and P388/DOX resistant cell lines were developed as described in Example 7 above. Non-treated P388 cells and resistant cell lines of these cells were grown in the presence and absence of 10^−8M of MET or DOX as indicated in Table 5 below.

[2] = test system: P388/MET; assay: Growth rate of P388/MET resistant cells; conditions: P388/MET grown in the presence of 10^−8 drug, no lipid treatment
Method: as §1

[3] = test system: P388/DOX; assay: Growth rate of P388/DOX resistant cells; conditions: P388/DOX grown in the presence of 10^−8 drug, no lipid treatment
Method: as §1

SMILES | relative growth rate [1] | relative growth rate [2] | relative growth rate [3]
COc1cccc2c1C(=O)c1c(O)c3c(c(O)c1C2=O)C[C@@](O)(C(=O)CO)C[C@@H]3O[C@H]1C[C@H](N)[C@H](O)[C@H](C)O1 [DOX, doxorubicine] | 10 ± 5 | 95 ± 5 | 95 ± 5
CN(Cc1cnc2nc(N)nc(N)c2n1)c1ccc(C(=O)N[C@@H](CCC(=O)O)C(=O)O)cc1 [MET, methotroxeate] | 10 ± 5 | 95 ± 5 | 93 ± 5
